Here are results for 18 compounds from patent US20260193293A1, “PEPTIDES CAPABLE OF INHIBITING PROTEIN-PROTEIN INTERACTIONS AT GABAB1A SUBUNIT AND USES THEREOF” (UNIVERSITY OF COPENHAGEN, priority 2022, published 2026).

As usually defined, the Ki is a dissociation constant, usually derived from enzyme kinetics or from competition with a known ligand.

The test has as its target Sushi domains (SD1/2) protein. The test is described as follows: Fluorescence polarization (FP) competition assay with AJAP-1probe, calculated Ki. The format is binding. As to conditions: read-out: Ki (nM) mean ± SEM. The essentials:
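Ki values were derived from IC50s (sigmoidal fits, ≥ triplicate), with probe Kd obtained by saturation titration of SD1/2. Peptides displaced a 25 nM TAMRA-labelled probe; polarization read at 530/580 nm in 1% BSA-containing PBS, pH 7.4, room temperature.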

Setting [1] is: Table 8, Ala-, D-amino acids and N-methylation scans of AJAP-1WT.
[2] abbreviates: Table 5, elongation and truncation scan of AJAP-1 binding epitope.
[3] abbreviates: Table 7, Ala-, D-amino acids and N-methylation scans of APPWT.
Setting [4] is: Table 16, ncAAs incorporated peptides.
Setting [5] is: Table 11, deep mutational scanning validation variants of AJAP-1WT.

Each structure is given as a SMILES string. Where two headings read alike, the source gives them in different places. Non-standard residues stand in square brackets, D forms with d. Residues, ends and D or L forms follow the SMILES beside them. *: point of attachment. NMeW = CN[C@@H](Cc1c[nH]c2ccccc12)C(=O)O; 1Nal = N[C@@H](Cc1cccc2ccccc12)C(=O)O; 2Nal = N[C@@H](Cc1ccc2ccccc2c1)C(=O)O; NMeF = CN[C@@H](Cc1ccccc1)C(=O)O; NMeT = CN[C@H](C(=O)O)[C@@H](C)O; NMeE = CN[C@@H](CCC(=O)O)C(=O)O; Bn = c1ccc(C*)cc1

For the compound `CC[C@H](C)[C@H](NC(=O)[C@H](Cc1ccccc1)NC(=O)[C@H](CCC(=O)O)NC(=O)[C@@H](NC(=O)[C@H](C)NC(C)=O)[C@@H](C)O)C(=O)N[C@@H](C)C(=O)N[C@@H](Cc1c[nH]c2ccccc12)C(=O)NCC(=O)N1CCC[C@H]1C(=O)N[C@H](C(=O)NCC(=O)N[C@@H](CC(=O)O)C(=O)N[C@@H](CCC(=O)O)C(=O)N[C@@H](CC(=O)O)C(N)=O)[C@@H](C)O` [ATEFIAWGPTGDED] (Ac-ATEFIAWGPTGDED-NH2), the Ki under setting [1] was 53 ± 2 nM. On to `CC[C@H](C)[C@H](NC(=O)[C@H](C)NC(=O)[C@H](Cc1c[nH]c2ccccc12)NC(=O)[C@H](C)NC(C)=O)C(=O)N[C@H](C(=O)N[C@@H](Cc1c[nH]c2ccccc12)C(=O)NCC(=O)N1CCC[C@H]1C(=O)N[C@H](C(=O)N[C@H](C(=O)N[C@@H](CO)C(=O)N[C@@H](CCCNC(=N)N)C(=O)N[C@@H](CCC(=O)O)C(=O)N[C@@H](CC(=O)O)C(N)=O)C(C)C)[C@@H](C)O)C(C)C` [AWAIVWGPTVSRED] (Ac-AWAIVWGPTVSRED-NH2), for which, under “Table 9, Ala-, D-amino acids and N-methylation scans of PIANPWT”, the Ki is 552 ± 20 nM. For `CC(=O)N[C@@H](C)C(=O)N[C@@H](Cc1c[nH]c2ccccc12)C(=O)NCC(=O)N1CCC[C@H]1C(=O)N[C@H](C(=O)NCC(=O)N[C@@H](CC(=O)O)C(=O)N[C@@H](CCC(=O)O)C(=O)N[C@@H](CC(=O)O)C(N)=O)[C@@H](C)O` [AWGPTGDED] (Ac-AWGPTGDED-NH2), the Ki under setting [2] is > 125000 nM. Take `CC[C@H](C)[C@H](NC(=O)[C@H](C)NC(=O)[C@H](Cc1c[nH]c2ccccc12)NC(=O)[C@H](CC(=O)O)NC(C)=O)C(=O)N[C@H](C(=O)N[C@@H](Cc1c[nH]c2ccccc12)C(=O)NCC(=O)N1CCC[C@H]1C(=O)N[C@H](C(=O)N[C@H](C(=O)N[C@@H](CO)C(=O)N[C@@H](CCCNC(=N)N)C(=O)N[C@@H](CCC(=O)O)C(=O)N[C@@H](CC(=O)O)C(N)=O)C(C)C)[C@@H](C)O)C(C)C` [DWAIVWGPTVSRED] (Ac-DWAIVWGPTVSRED-NH2): the Ki (Table 12, deep mutational scanning validation variants of PIANPWT) was 338 ± 1 nM. For the compound `CC[C@H](C)[C@H](NC(=O)[C@H](Cc1ccccc1)NC(=O)[C@H](CCC(=O)O)NC(=O)[C@H]([C@@H](C)O)N(C)C(=O)[C@H](CCC(=O)O)NC(C)=O)C(=O)N[C@@H](C)C(=O)N[C@@H](Cc1c[nH]c2ccccc12)C(=O)NCC(=O)N1CCC[C@H]1C(=O)N[C@H](C(=O)NCC(=O)N[C@@H](CC(=O)O)C(=O)N[C@@H](CCC(=O)O)C(=O)N[C@@H](CC(=O)O)C(N)=O)[C@@H](C)O` [E(N-Me-T)EFIAWGPTGDED] (Ac-E[NMeT]EFIAWGPTGDED-NH2), under setting [1], the Ki is 37 ± 2 nM. On the same count and under the same terms, as for `CC[C@H](C)[C@H](NC(=O)[C@H](Cc1ccccc1)NC(=O)[C@H](CCC(=O)O)NC(=O)[C@H](C)NC(=O)[C@H](CCC(=O)O)NC(C)=O)C(=O)N[C@@H](C)C(=O)N[C@@H](Cc1c[nH]c2ccccc12)C(=O)NCC(=O)N1CCC[C@H]1C(=O)N[C@H](C(=O)NCC(=O)N[C@@H](CC(=O)O)C(=O)N[C@@H](CCC(=O)O)C(=O)N[C@@H](CC(=O)O)C(N)=O)[C@@H](C)O` [EAEFIAWGPTGDED] (Ac-EAEFIAWGPTGDED-NH2), the figure is 34 ± 3 nM. On to `CC(=O)N[C@@H](CCC(=O)O)C(=O)N[C@@H](CC(=O)O)C(=O)N[C@@H](CC(=O)O)C(=O)N[C@@H](CO)C(=O)N[C@@H](CC(=O)O)C(=O)N[C@H](C(=O)N(C)[C@@H](Cc1c[nH]c2ccccc12)C(=O)N[C@@H](Cc1c[nH]c2ccccc12)C(=O)NCC(=O)NCC(=O)N[C@@H](C)C(=O)N[C@@H](CC(=O)O)C(=O)N[C@H](C(=O)N[C@@H](CC(=O)O)C(N)=O)[C@@H](C)O)C(C)C` [EDDSDV(N-Me-W)WGGADTD] (Ac-EDDSDV[NMeW]WGGADTD-NH2), for which, under setting [3], the Ki was 85600 ± 10100 nM.

Regarding `CC(=O)N[C@@H](CCC(=O)O)C(=O)N[C@@H](CC(=O)O)C(=O)N[C@@H](CC(=O)O)C(=O)N[C@@H](CO)C(=O)N[C@@H](CC(=O)O)C(=O)N[C@H](C(=O)N[C@@H](Cc1c[nH]c2ccccc12)C(=O)N[C@@H](Cc1cccc2ccccc12)C(=O)NCC(=O)NCC(=O)N[C@@H](C)C(=O)N[C@@H](CC(=O)O)C(=O)N[C@H](C(=O)N[C@@H](CC(=O)O)C(N)=O)[C@@H](C)O)C(C)C` [EDDSDVW(1Nala)GGADTD] (Ac-EDDSDVW[1Nal]GGADTD-NH2), the Ki under setting [4] was 499 ± 17 nM. Turning to `CC(=O)N[C@@H](CCC(=O)O)C(=O)N[C@@H](CC(=O)O)C(=O)N[C@@H](CC(=O)O)C(=O)N[C@@H](CO)C(=O)N[C@@H](CC(=O)O)C(=O)N[C@H](C(=O)N[C@@H](Cc1c[nH]c2ccccc12)C(=O)N[C@@H](Cc1ccc2ccccc2c1)C(=O)NCC(=O)NCC(=O)N[C@@H](C)C(=O)N[C@@H](CC(=O)O)C(=O)N[C@H](C(=O)N[C@@H](CC(=O)O)C(N)=O)[C@@H](C)O)C(C)C` [EDDSDVW(2Nala)GGADTD] (Ac-EDDSDVW[2Nal]GGADTD-NH2), the Ki under setting [4] was 814 ± 10 nM. Turning to `CC(=O)N[C@@H](CCC(=O)O)C(=O)N[C@@H](CC(=O)O)C(=O)N[C@@H](CC(=O)O)C(=O)N[C@@H](CO)C(=O)N[C@@H](CC(=O)O)C(=O)N[C@H](C(=O)N[C@@H](Cc1c[nH]c2ccccc12)C(=O)N(C)[C@@H](Cc1c[nH]c2ccccc12)C(=O)NCC(=O)NCC(=O)N[C@@H](C)C(=O)N[C@@H](CC(=O)O)C(=O)N[C@H](C(=O)N[C@@H](CC(=O)O)C(N)=O)[C@@H](C)O)C(C)C` [EDDSDVW(N-Me-W)GGADTD] (Ac-EDDSDVW[NMeW]GGADTD-NH2), under setting [3], the Ki is 1380 ± 16 nM.

On to `CC(=O)N[C@@H](CCC(=O)O)C(=O)N[C@@H](CC(=O)O)C(=O)N[C@@H](CC(=O)O)C(=O)N[C@@H](CO)C(=O)N[C@@H](CC(=O)O)C(=O)N[C@H](C(=O)N[C@@H](Cc1c[nH]c2ccccc12)C(=O)N[C@@H](Cc1ccc(OCc2ccccc2)cc1)C(=O)NCC(=O)NCC(=O)N[C@@H](C)C(=O)N[C@@H](CC(=O)O)C(=O)N[C@H](C(=O)N[C@@H](CC(=O)O)C(N)=O)[C@@H](C)O)C(C)C` [EDDSDVW(Obtyr)GGADTD] (Ac-EDDSDVWY(Bn)GGADTD-NH2), for which, under setting [4], the Ki is 3860 ± 62 nM.

As for `CC(=O)N[C@@H](CCC(=O)O)C(=O)N[C@@H](CC(=O)O)C(=O)N[C@@H](CC(=O)O)C(=O)N[C@@H](CO)C(=O)N[C@@H](CC(=O)O)C(=O)N[C@H](C(=O)N[C@@H](Cc1c[nH]c2ccccc12)C(=O)N[C@@H](Cc1c[nH]c2ccccc12)C(=O)NCC(=O)NCC(=O)N[C@@H](C)C(=O)N[C@@H](CC(=O)O)C(=O)N[C@@H](CCC(=O)O)C(=O)N[C@@H](CC(=O)O)C(N)=O)C(C)C` [EDDSDVWWGGADED] (Ac-EDDSDVWWGGADED-NH2), the Ki (Table 10, deep mutational scanning validation variants of APPWT) was 337 ± 10 nM. `CC[C@H](C)[C@H](NC(=O)[C@H](Cc1ccccc1)NC(=O)[C@H](CCC(=O)O)NC(C)=O)C(=O)N[C@@H](C)C(=O)N[C@@H](Cc1c[nH]c2ccccc12)C(=O)NCC(=O)N1CCC[C@H]1C(=O)N[C@H](C(=O)NCC(=O)N[C@@H](CC(=O)O)C(=O)N[C@@H](CCC(=O)O)C(=O)N[C@@H](CC(=O)O)C(N)=O)[C@@H](C)O` [EFIAWGPTGDED] (Ac-EFIAWGPTGDED-NH2): the Ki under setting [2] is 112 ± 1 nM.

Consider `CC[C@H](C)[C@H](NC(=O)[C@H](Cc1ccccc1)NC(=O)[C@H](CCC(=O)O)NC(=O)[C@@H](NC(=O)[C@H](CCC(=O)O)NC(C)=O)[C@@H](C)CC)C(=O)N[C@@H](C)C(=O)N[C@@H](Cc1c[nH]c2ccccc12)C(=O)NCC(=O)N1CCC[C@H]1C(=O)N[C@H](C(=O)NCC(=O)N[C@@H](CC(=O)O)C(=O)N[C@@H](CCC(=O)O)C(=O)N[C@@H](CC(=O)O)C(N)=O)[C@@H](C)O` [EIEFIAWGPTGDED], for which the Ki under setting [5] is 22 ± 1 nM.

`CC[C@H](C)[C@H](NC(=O)[C@H](Cc1ccccc1)NC(=O)[C@H](CCC(=O)O)N(C)C(=O)[C@@H](NC(=O)[C@H](CCC(=O)O)NC(C)=O)[C@@H](C)O)C(=O)N[C@@H](C)C(=O)N[C@@H](Cc1c[nH]c2ccccc12)C(=O)NCC(=O)N1CCC[C@H]1C(=O)N[C@H](C(=O)NCC(=O)N[C@@H](CC(=O)O)C(=O)N[C@@H](CCC(=O)O)C(=O)N[C@@H](CC(=O)O)C(N)=O)[C@@H](C)O` [ET(N-Me-E)FIAWGPTGDED] (Ac-ET[NMeE]FIAWGPTGDED-NH2): the Ki under setting [1] is 159 ± 3 nM. Same read-out and setting: next, `CC[C@H](C)[C@H](NC(=O)[C@H](Cc1ccccc1)NC(=O)[C@H](C)NC(=O)[C@@H](NC(=O)[C@H](CCC(=O)O)NC(C)=O)[C@@H](C)O)C(=O)N[C@@H](C)C(=O)N[C@@H](Cc1c[nH]c2ccccc12)C(=O)NCC(=O)N1CCC[C@H]1C(=O)N[C@H](C(=O)NCC(=O)N[C@@H](CC(=O)O)C(=O)N[C@@H](CCC(=O)O)C(=O)N[C@@H](CC(=O)O)C(N)=O)[C@@H](C)O` [ETAFIAWGPTGDED] (Ac-ETAFIAWGPTGDED-NH2): 49 ± 2 nM. Regarding `CC[C@H](C)[C@H](NC(=O)[C@H](Cc1ccccc1)NC(=O)[C@H](CC(=O)O)NC(=O)[C@@H](NC(=O)[C@H](CCC(=O)O)NC(C)=O)[C@@H](C)O)C(=O)N[C@@H](C)C(=O)N[C@@H](Cc1c[nH]c2ccccc12)C(=O)NCC(=O)N1CCC[C@H]1C(=O)N[C@H](C(=O)NCC(=O)N[C@@H](CC(=O)O)C(=O)N[C@@H](CCC(=O)O)C(=O)N[C@@H](CC(=O)O)C(N)=O)[C@@H](C)O` [ETDFIAWGPTGDED] (Ac-ETDFIAWGPTGDED-NH2), the Ki under setting [5] is 26 ± 1 nM. In the case of `CC[C@H](C)[C@H](NC(=O)[C@H](Cc1ccccc1)N(C)C(=O)[C@H](CCC(=O)O)NC(=O)[C@@H](NC(=O)[C@H](CCC(=O)O)NC(C)=O)[C@@H](C)O)C(=O)N[C@@H](C)C(=O)N[C@@H](Cc1c[nH]c2ccccc12)C(=O)NCC(=O)N1CCC[C@H]1C(=O)N[C@H](C(=O)NCC(=O)N[C@@H](CC(=O)O)C(=O)N[C@@H](CCC(=O)O)C(=O)N[C@@H](CC(=O)O)C(N)=O)[C@@H](C)O` [ETE(N-Me-F)IAWGPTGDED] (Ac-ETE[NMeF]IAWGPTGDED-NH2), the Ki under setting [1] is 252 ± 5 nM.
